From US20190169134A1, “NOVEL CLASS OF QUINOLONE HETEROCYCLIC AROMATIC MOLECULES FOR CANCER TREATMENT” (RenoTarget Therapeutics, Inc., priority 2016, published 2019)

Tests used:
HCC827-P = assay: qRT-PCR expression of Caspase 3, Caspase 9 and p21; assay type: cell-based, human; settings: 24 h
Protocol: FIG. 10 depicts the effect of Reno647 on expressions of Caspase 3, Caspase 9 and p21 in HCC827-P and on Box, Bcl2, p53 and p21 in HCC827-OR16 cells. […] Total cellular RNA was extracted and cDNA was prepared followed by qRT-PCR using specific probes as described in the section of Materials and Methods. Tgene ΔCt value was normalized for GAPDH by calculating ΔCt=Ctgene−CtGAPDH per sample.
HCC827 P or other indicated cells at exponential growth phase were treated with indicated concentrations of compounds for 24 hours. Total cellular RNA was prepared from lysed tumor cells using an RNA Purification kit (ThermoFisher Scientific). The first-strand of cDNA was synthesized using a High Capacity cDNA reverse transcription kit (ThermoFisher Scientific) in PTC-100 Peltier Thermal Cycler PCR. The resultant cDNA (0.5-1 μL) was used in a 10 μl reaction by using Taqman Universal PCR Master Mix (ThermoFisher Scientific). The pre-designed primers and probe were purchased from Life Technologies and used for qPCR. Human GAPDH was used as an internal control. qPCR was performed using Applied Biosystems StepOne and StepOnePlus Real-Time PCR Systems according manufacturer's instructions. An initial PCR denaturation step was performed at 95° C. for 20 seconds. The general cycling stage for qPCR were as follows: denaturation at 95° C. for 1 second, annealing and extension at 60° C. for 20 seconds, repeat for 40 cycles. Tgene ΔCt value was normalized for GAPDH by calculating ΔCt=Ctgene−CtGAPDH per sample.

FLT2 = target: T1, FLT2 (Homo sapiens, UniProt P11362); assay: KinaseSeeker competition binding assay
T1 construct: made in house; host or cells: cell-free system (rabbit reticulocyte lysate)
Protocol: (§1) Compound Reno647 was profiled against the following panel of kinases at 2 μM using the KinaseSeeker™ assay: ABL1, AKT1, AKT2, AKT3, ALK, AURKA, AXL, BRAF, BTK, CDK2, CDK5, CDK7, CDK8, CSF1R, DDR1, EGFR del L747-P753 InsS, EGFR (L861Q), EGFR (G719S), EGFR, EGFR (L858R), EPHA2, EPHB2, FGFR3, FLT1/VEGFR1, FLT2/FGFR1, FLT3, FLT4/VEGFR3, GSK-3a, HER2, IGF1R, INSR, KIT, LIMK1, MET, MLK2/MAP3K10, RPS6KA5/MSK1, MUSK, p38a/MAPK12, PDGFRA, PDGFRB, PDK1, RET, RIPK2, RPS6KA1/RSK1, SRC, TEC, TESK1, TRKB, VEGFR2, and YES 1.
(§2) KinaseSeeker is a homogeneous competition binding assay where the displacement of an active site dependent probe by an inhibitor is measured by a change in luminescence signal (see FIG. 7). Luminescence readout translates into a highly sensitive and robust assay with low background and minimal interference from test compounds.
(§3) (Jester, Cox et al. 2010; Jester, Gaj et al. 2012): 10 mM stock of compound Reno647 was diluted in DMSO to a concentration of 50 μM. Prior to initiating a profiling campaign, the compound was evaluated for false positive against split-luciferase. The compound was then screened in duplicate against each of the kinases. For kinase assays, each Cfluc-Kinase was translated along with Fos-Nfluc using a cell-free system (rabbit reticulocyte lysate) at 30° C. for 90 min. A 24 μL aliquot of this lysate containing either 1 μL of DMSO (for no-inhibitor control) or compound solution in DMSO (2 LM final concentration) was incubated for 30 minutes at room temperature followed by 1 hour in the presence of a kinase specific probe. A 80 μL of luciferin assay reagent was added to each solution and luminescence was immediately measured on a luminometer.
(§4) The % Inhibition and % Activity Remaining were calculated using the following equations:
(§5) % inhibition=(ALUcontrol−ALUsample)×100
(§6) % activity=100−% inhibition.

AKT1 = target: T2, AKT1 (Homo sapiens, UniProt P31749); assay: KinaseSeeker competition binding assay
T2 construct: made in house; host or cells: cell-free system (rabbit reticulocyte lysate)
Protocol: as §1, §2, §3, §4, §5, §6

CSF1R = target: T3, CSF1R (Homo sapiens, UniProt P07333); assay: KinaseSeeker competition binding assay
T3 construct: made in house; host or cells: cell-free system (rabbit reticulocyte lysate)
Protocol: as §1, §2, §3, §4, §5, §6

tested cancer cell lines = assay: Cell growth inhibition by SRB method, tested cancer cell lines overall; assay type: cell-based, human; settings: data not provided
From the text: Six human cancer cell lines have been used to evaluate effects of the compounds on proliferation of cancer cells. These cell lines include HCC827-P (or HCC827 parent cells), human non-small lung cancer cells, Parent NSCLC HCC827 cell line (which harbors EGFR gene amplification, Exon 19 (E19) deletion, and Exon 21 mutation (Wang, Ramakrishnan et al. 2010), and is an EGFRi sensitive cell line (Kim, Kim et al. 2010)); HCC827-TR16 (Tarceva-resistant HCC727 cell line), HCC827-OR16 (AZD9291-resistant HCC727 cell line), LNCaP (human prostate cancer cells—a hormonal-therapy sensitive cell line (Wang, Liu et al. 1997)); 22RV1 (human prostate cancer cells—a hormonal-therapy resistant cell line (Sramkoski, Pretlow et al. 1999)); and ACHN (human renal adenocarcinoma cells (Park, Jung et al. 2003)). LNCaP cells and 22RV1 cells were purchased from the American Type Culture Collection (Rockville, Md.) and others were gifts of friends.
All cell lines were maintained in RPMI-1640 (GIBCO, Gaithersburg, Md.) with 10% heat-inactivated bovine serum (FBS) (Wang, Ossowski et al. 2004).
Sulforhodamine B (SRB) was used to estimate cell growth as described previously (Skehan, Storeng et al. 1990). Briefly, cells grown exponentially were aliquoted into 96-well plates at a density of 2,500 to 5,000 cells/200 μl per well in RPMI 1640 medium containing 10% FBS. After twenty-four hours, the cells were exposed to indicated concentrations of tested compounds for 72 hrs or otherwise as indicated. The cells were then fixed with 10% trichloride acetic acid for 2 h at 4° C. The 10% trichloride acetic acid was removed, and the dishes were washed 5 times with tape water, and air-dried. The fixed and dried cells were then stained with 0.4% SRB in 1% acetic acid for 25 min, and the dishes were washed 5 times with 1% acetic acid and air-dried overnight. 200 μl of 10 mM of Tris buffer (pH 10.0) were added, and the dishes were rotated to completely dissolve the color. Absorbance at 570 nm, with a reference wavelength 690 nm, was measured on a 96-well microplate reader (SPECTRO Star^Nano, BMG Labtech). Mean, standard deviation (SD) and the percent of growth inhibition at each concentration point of the treatment were calculated. The percent of growth inhibition as defined as (1−T/C)×100 where T is the mean of the absorbance at 570 nm from the treatment, and C from control (drug vehicle only). IC50 was calculated using Sigma-plot software by regression of growth-concentration curve from each drug treatment.

T2 sequence (P31749 whole entry): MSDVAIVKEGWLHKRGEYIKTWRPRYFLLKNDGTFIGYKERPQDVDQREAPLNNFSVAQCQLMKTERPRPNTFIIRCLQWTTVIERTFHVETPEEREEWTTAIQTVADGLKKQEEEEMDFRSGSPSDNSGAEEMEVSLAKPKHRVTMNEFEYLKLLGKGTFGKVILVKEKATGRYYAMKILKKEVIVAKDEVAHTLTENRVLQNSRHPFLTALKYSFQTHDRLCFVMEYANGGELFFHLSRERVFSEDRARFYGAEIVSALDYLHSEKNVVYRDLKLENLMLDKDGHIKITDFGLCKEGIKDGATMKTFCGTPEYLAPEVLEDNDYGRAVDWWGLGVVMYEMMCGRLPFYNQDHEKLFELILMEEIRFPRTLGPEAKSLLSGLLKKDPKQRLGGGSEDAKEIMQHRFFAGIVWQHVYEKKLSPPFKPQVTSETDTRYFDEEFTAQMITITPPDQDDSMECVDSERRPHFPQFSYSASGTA
T3 sequence (P07333 20-972): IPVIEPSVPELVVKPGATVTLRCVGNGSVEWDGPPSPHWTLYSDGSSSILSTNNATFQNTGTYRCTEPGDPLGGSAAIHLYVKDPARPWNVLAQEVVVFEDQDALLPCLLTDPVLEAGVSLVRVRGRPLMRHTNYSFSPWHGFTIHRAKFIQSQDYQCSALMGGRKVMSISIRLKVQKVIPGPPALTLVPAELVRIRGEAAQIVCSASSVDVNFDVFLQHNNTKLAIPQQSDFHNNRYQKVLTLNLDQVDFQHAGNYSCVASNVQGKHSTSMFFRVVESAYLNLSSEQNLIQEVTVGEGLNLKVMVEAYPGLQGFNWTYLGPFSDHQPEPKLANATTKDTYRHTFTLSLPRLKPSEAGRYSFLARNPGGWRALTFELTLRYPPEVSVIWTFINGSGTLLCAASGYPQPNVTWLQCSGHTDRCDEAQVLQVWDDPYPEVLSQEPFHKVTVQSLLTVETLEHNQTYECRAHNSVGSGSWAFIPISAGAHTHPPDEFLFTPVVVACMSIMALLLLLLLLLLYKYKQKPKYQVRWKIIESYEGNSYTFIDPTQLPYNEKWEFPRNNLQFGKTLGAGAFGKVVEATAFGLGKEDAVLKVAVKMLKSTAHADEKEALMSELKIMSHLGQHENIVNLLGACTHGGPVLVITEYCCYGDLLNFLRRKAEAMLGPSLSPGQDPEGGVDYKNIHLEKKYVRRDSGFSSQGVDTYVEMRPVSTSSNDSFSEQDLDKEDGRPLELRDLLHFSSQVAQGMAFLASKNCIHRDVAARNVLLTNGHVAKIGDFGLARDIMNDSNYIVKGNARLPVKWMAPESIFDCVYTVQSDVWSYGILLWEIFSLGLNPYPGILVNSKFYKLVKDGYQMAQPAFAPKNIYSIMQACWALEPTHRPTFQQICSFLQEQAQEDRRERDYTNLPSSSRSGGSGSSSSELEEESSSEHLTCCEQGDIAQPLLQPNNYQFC
T1 sequence (P11362 22-822): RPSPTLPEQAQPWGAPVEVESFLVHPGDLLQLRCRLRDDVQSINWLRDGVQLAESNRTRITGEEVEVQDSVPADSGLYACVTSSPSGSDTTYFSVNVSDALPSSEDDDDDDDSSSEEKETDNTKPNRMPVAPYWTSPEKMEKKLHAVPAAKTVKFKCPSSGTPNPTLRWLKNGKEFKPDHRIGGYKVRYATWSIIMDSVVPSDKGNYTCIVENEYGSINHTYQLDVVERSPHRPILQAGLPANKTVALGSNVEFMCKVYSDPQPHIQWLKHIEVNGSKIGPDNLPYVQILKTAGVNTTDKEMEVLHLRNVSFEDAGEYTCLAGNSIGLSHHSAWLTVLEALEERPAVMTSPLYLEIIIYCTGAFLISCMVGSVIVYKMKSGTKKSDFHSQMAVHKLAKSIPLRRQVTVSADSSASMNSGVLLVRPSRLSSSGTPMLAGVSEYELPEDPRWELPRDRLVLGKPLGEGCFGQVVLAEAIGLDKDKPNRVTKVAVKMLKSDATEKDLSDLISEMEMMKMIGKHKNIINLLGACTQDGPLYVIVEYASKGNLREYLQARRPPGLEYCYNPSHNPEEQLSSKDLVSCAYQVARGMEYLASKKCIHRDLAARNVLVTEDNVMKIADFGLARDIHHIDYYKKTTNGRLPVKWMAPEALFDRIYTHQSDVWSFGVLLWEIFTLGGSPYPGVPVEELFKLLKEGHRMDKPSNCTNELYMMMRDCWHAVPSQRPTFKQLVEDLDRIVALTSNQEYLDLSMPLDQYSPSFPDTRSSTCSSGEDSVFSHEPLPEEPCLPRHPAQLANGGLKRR

p21 expression (HCC827-P; q-RT-PCR): significant induction | Caspase 3 expression (HCC827-P; qRT-PCR): moderate increase | remaining binding at 2 µM (FLT2): 51.7% | remaining binding at 2 µM (AKT1): 96.8% | remaining binding at 2 µM (CSF1R): 97.6%
SMILES: C#Cc1cccc(Nc2ncnc3cc(OCCOC)c(NC(=O)c4ccc(F)c([N+](=O)[O-])c4)cc23)c1 [Reno647, 4-Fluoro-N-[4-(3-ethynyl-phenylamino)-7-(2-methoxy-ethoxy)-quinazolin-6-yl]-3-nitro-benzamide]
Caspase 9 expression (HCC827-P; qRT-PCR): significant and concentration-dependent induction | activities against all tested cancer cells lines compared with NK-2206 and MLN8237 (tested cancer cell lines): better activities
